The values that follow come from patent publication US20130053407A1, “PYRROLO [3,2-D] PYRIMIDIN-3-YL DERIVATIVES USED AS ACTIVATORS OF AMPK” (GlaxoSmithKline LLC, priority 2010, published 2013).

For orientation: pEC50 means −log10 of the EC50, conventionally taken in molar units.

Assay [1] concerns Human recombinant AMPK. Nature of the assay: AMPK Enzymatic Assay (Z'Lyte FRET). It is filed as biochemical. The settings on record: AMPK activation, ATP 100 μM, peptide 2 μM, means of at least 2 independent experiments. The method, then:
Human recombinant AMPK (Invitrogen #PV4673 & #PV4675) is used in a FRET assay format (Z'Lyte—Invitrogen). Assay conditions are as follow: ATP 100 μM, peptide (Invitrogen #PR8650) 2 μM, 1% final DMSO in Z'Lyte kinase buffer. Reaction is initiated by addition of 0.2-0.8 ng of AMPK and incubated for 1-hour @ 30° C. A further 1-hour incubation @ 30° C. with the development reagent (Invitrogen #PR5194) is performed. FRET signal is then measured and converted to “% peptide phosphorylation” according to Z′Lyte given calculation procedure. Evaluation of compounds is carried out using concentration-response curves. Final data are expressed in “% activation” calculating the ratio of “% peptide phosphorylation” between compound-condition and basal-condition. […] All data are means of at least 2 independent experiments.

Assay [2] has as its system ob/ob and db/db mice. Conditions: 8 day AICAR administration; cited from earlier work.

The structures appear in SMILES notation.

`COc1cccc(-c2ccc(-n3c(Cl)cc4[nH]c(=O)n(-c5cccc(F)c5)c(=O)c43)cc2)c1O` [6-Chloro-3-(3-fluorophenyl)-5-[2′-hydroxy-3′-(methyloxy)-4-biphenylyl]-1H-pyrrolo[3,2-d]pyrimidine-2,4(3H,5H)-dione]: the pEC50 in assay [1] stood at 5.3.
As to `NC(=O)c1ncn([C@@H]2O[C@H](CO)[C@@H](O)[C@H]2O)c1N` [AICAR], the reduces blood glucose in assay [2] is 35%.
For `Cc1cccc(-c2ccc(-n3c(Cl)cc4[nH]c(=O)n(-c5ccc(C#N)cc5)c(=O)c43)cc2)c1O` [4-[6-Chloro-5-(2′-hydroxy-3′-methyl-4-biphenylyl)-2,4-dioxo-1,2,4,5-tetrahydro-3H-pyrrolo[3,2-d]pyrimidin-3-yl]benzonitrile], in assay [1], the negative-log EC50 (pEC50) was determined as 5.4.
